Results reported in patent US20170202838A1, “IMMUNOMODULATOR” (TAIHO PHARMACEUTICAL CO., LTD., priority 2015, published 2017).

What was measured:
EG.7-OVA = experiment: Peripheral blood immunocyte analysis in mouse model subcutaneously implanted with OVA-expressing thymoma cell line (Example 5); type: in vivo; details: Compound (I) 50 mg/kg, 14 days after implantation, compared with control group and anti-PD-1 antibody group (FIG. 6)
Method: A cell suspension of the OVA-expressing mouse thymoma cell line (EG.7-OVA) was prepared with the use of PBS(-) and 50% Matrigel, and the cell suspension (1×10^4 cells/mouse) was implanted into the syngeneic C57BL/6n mice via subcutaneous injection. The mice were divided into groups based on their body weights 1 day after implantation, and Compound (I) was administered thereto at 50 mg/kg or the anti-PD-1 antibody was administered thereto at 100 μg/mouse. A control group to which neither Compound (I) nor the anti-PD-1 antibody had been administered was also prepared. The peripheral blood was sampled 14 days after implantation and analyzed via flow cytometry with the use of antibodies each reacting with a relevant immunocyte surface marker, so as to determine the relative number of CD4-positive cells, CD8-positive cells, and CD4-negative, CD8-negative, and NK1.1-positive cells. […] In the group to which Compound (I) had been administered, the number of all cells increased, compared with the control group and the group to which the anti-PD-1 antibody had been administered.

colon26 = experiment: Analysis of immunocytes in spleen cells in mouse model subcutaneously implanted with colon cancer cell line (Example 6); type: in vivo; details: Compound (I) 50 mg/kg and/or anti-PD-1 antibody 100 μg/mouse
Method: A cell suspension of the mouse colon cancer cell line (colon26) was prepared with the use of PBS(-) and 50% Matrigel, and the cell suspension was implanted into the syngeneic BALB/c mice via subcutaneous injection at 2×10^3 cells/mouse. The mice were divided into groups based on their body weights 1 day after implantation, and Compound (I) was administered thereto at 50 mg/kg and/or the anti-PD-1 antibody was administered thereto at 100 μg/mouse. A control group to which neither Compound (I) nor the anti-PD-1 antibody had been administered was also prepared. The spleen cells were sampled 21 days after implantation and analyzed via flow cytometry with the use of antibodies each reacting with a relevant immunocyte surface marker.

MC38 [1] = experiment: In vitro growth of mouse colon cancer cell line MC38, CellTiter-Glo2.0 (Reference Example 1); type: cell-based; details: MC38, 3 days culture
Method: The mouse melanoma cell lines B16F10 and K1735M2 and the mouse colon cancer cell line MC38 were seeded in a 96-well plate at 3×10^3 cells/well. Compound (I) or the EGFR tyrosine kinase inhibitor (i.e., Erlotinib, Afatinib, AZD9291, or Co1686 (Rociletinib)) that had been diluted to the given concentration was added 24 hours later. Thereafter, culture was conducted for 3 days, and the number of cells was determined using CellTiter-Glo2.0 (Promega, G9243).

B16F10 = experiment: Pulmonary metastatic nodules after intravenous injection of mouse melanoma cell line, in vivo model (Example 8); details: oral 12.5 mg/kg or 50 mg/kg, 14 days after implantation, compared with control group (FIG. 10)
Method: A cell suspension of the mouse melanoma cell line B16F10 was prepared with the use of PBS(-), and the cell suspension was injected intravenously into the mouse caudal portion at 5×10^5 cells/mouse. Compound (I) was administered orally to the mouse model at 12.5 mg/kg or 50 mg/kg on the previous day of B16F10 implantation. The number of pulmonary metastatic nodules was evaluated 14 days after implantation (i.e., 15 days after drug administration). […] On the basis of the results above and the results of Reference Example 1 such that the tumor growth inhibitory effects were not observed in the in vitro model, it was deduced that the decreased number of pulmonary metastatic nodules was achieved by the immunomodulation activity of Compound (I).

MC38 [2] = experiment: Tumor volume of subcutaneous mouse colon cancer cell line, in vivo model (Example 9); details: Compound (I) 50 mg/kg, compared with control group (FIG. 11)
Method: (§1) A cell suspension of the mouse colon cancer cell line MC38 was prepared with the use of PBS(-) and 50% Matrigel, and the cell suspension was injected subcutaneously into mice at 1×10^6 cells/mouse. The mice were divided into groups when the average subcutaneous tumor volume reached approximately 50 mm^3, Compound (I) was administered at 50 mg/kg or the anti-PD-1 antibody was administered at 100 μg/mouse, and the tumor volume was measured with the elapse of time. The tumor volume was determined on the basis of the longer diameter and the shorter diameter of the tumor measured percutaneously in accordance with Equation A shown below.
Tumor volume (mm^3)=longer diameter (mm)×shorter diameter (mm)^2/2 (Equation A)

MC38 [3] = experiment: Immune-system-associated gene expression in tumors via real-time PCR (Example 11); type: in vivo, mouse; details: final day of administration, relative to control
Method: as §1, with “(50 mg/kg)” for “was administered at 50 mg/kg”, “antibody (50 μg/mouse)” for “antibody”, “thereto alone or Compound (I) (50 mg/kg) was administered in combination with the anti-PD-1 antibody (50 μg/mouse),” for “at 100 μg/mouse,”
FIGS. 14 to 16 show changes in the immune-system-associated gene expression levels in tumors of the groups on the final day of administration of Compound (I). The tumor samples were obtained from the groups on the final day of administration of Compound (I) to prepare cDNA samples. The prepared cDNA samples were subjected to gene expression analysis via real-time PCR with the use of various immune-system-associated gene probes, and the results thereof were plotted. β-Actin was used as a control. Each plot indicates a gene expression level relative to a value of one of the controls. In the group to which Compound (I) had been administered, CD3, CD4, CD8, NK1.1, IL-2, IFN-γ, Perforin, Granzyme B, and CD69 gene expression levels increased, compared with those in the group to which Compound (I) had not been administered.

EGFR tyrosine kinase = EGFR tyrosine kinase (Homo sapiens, UniProt P00533); details: known from WO 2013/125709; cited from earlier work
Sequence of EGFR tyrosine kinase (P00533 25-1210): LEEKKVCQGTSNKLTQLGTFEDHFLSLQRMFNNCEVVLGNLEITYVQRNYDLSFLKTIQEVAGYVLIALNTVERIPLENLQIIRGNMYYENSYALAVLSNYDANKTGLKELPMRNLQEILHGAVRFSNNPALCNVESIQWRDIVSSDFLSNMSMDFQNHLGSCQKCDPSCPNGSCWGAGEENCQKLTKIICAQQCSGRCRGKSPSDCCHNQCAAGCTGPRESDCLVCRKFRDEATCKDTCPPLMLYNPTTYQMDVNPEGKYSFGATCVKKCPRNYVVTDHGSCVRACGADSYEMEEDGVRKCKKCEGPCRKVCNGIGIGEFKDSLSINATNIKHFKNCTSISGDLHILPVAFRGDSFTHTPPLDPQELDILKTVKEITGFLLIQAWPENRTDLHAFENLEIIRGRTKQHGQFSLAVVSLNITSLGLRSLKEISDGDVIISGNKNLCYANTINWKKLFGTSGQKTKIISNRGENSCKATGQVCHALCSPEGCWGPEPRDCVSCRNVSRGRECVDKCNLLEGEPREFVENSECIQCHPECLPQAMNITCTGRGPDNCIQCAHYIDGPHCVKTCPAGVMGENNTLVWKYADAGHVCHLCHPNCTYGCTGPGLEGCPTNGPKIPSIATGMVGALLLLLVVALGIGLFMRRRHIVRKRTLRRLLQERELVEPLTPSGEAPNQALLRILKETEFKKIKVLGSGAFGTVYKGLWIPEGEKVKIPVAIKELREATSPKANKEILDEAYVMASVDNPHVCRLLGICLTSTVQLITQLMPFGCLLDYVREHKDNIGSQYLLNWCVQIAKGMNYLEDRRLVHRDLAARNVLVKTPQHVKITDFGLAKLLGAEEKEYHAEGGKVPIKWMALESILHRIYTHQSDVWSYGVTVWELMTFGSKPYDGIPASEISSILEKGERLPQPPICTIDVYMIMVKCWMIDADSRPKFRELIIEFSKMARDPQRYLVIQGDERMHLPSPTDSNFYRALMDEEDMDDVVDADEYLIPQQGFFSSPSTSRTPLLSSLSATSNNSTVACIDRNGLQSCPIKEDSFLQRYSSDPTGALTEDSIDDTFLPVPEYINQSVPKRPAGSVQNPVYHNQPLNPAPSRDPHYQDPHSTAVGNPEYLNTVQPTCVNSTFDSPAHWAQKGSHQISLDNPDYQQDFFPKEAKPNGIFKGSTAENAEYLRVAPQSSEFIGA

[4] = 21 days after implantation (FIG. 7)
[5] = 21 days after implantation, compared with control group (FIG. 8)

C=CC(=O)N[C@H]1CCc2c(-c3cnc4ccccc4c3)c3c(N)ncnc3n2C1 [Compound (I), (S)—N-(4-amino-5-(quinolin-3-yl)-6,7,8,9-tetrahydropyrimido[5,4-b]indolizin-8-yl)acrylamide]
relative number of CD4-negative, CD8-negative, and NK1.1-positive cells in peripheral blood (EG.7-OVA): increased | relative number of CD4-positive cells in peripheral blood (EG.7-OVA): increased | relative number of CD8-positive cells in peripheral blood (EG.7-OVA): increased | relative number of CD4-positive and CD69-positive cells in spleen cells (colon26; [4]): greater than those in the control group | relative number of CD4-positive, CD44-positive, and CD62L-negative cells in spleen cells (colon26; [4]): greater than those in the control group | CD44 expression level in CD4-positive cells (MFI) (colon26; [5]): increased | CD62L expression level in CD4-positive cells (MFI) (colon26; [5]): decreased | suppression of cell growth (number of cells) (MC38 [1]): did not suppress the growth of any cells | number of pulmonary metastatic nodules (B16F10): decreased in a dose-dependent manner | extent of tumor growth inhibition (tumor volume) (MC38 [2]): greater | CD3 gene expression level in tumors (MC38 [3]; β-Actin control (FIG. 14)): increased | CD4 gene expression level in tumors (MC38 [3]; β-Actin control (FIG. 14)): increased | CD8 gene expression level in tumors (MC38 [3]; β-Actin control (FIG. 14)): increased | IFN-γ gene expression level in tumors (MC38 [3]; β-Actin control (FIG. 15)): increased | IL-2 gene expression level in tumors (MC38 [3]; β-Actin control (FIG. 15)): increased | NK1.1 gene expression level in tumors (MC38 [3]; β-Actin control (FIG. 15)): increased | CD69 gene expression level in tumors (MC38 [3]; β-Actin control (FIG. 16)): increased | Granzyme B gene expression level in tumors (MC38 [3]; β-Actin control (FIG. 16)): increased | Perforin gene expression level in tumors (MC38 [3]; β-Actin control (FIG. 16)): increased | inhibition of EGFR tyrosine kinase (EGFR tyrosine kinase): inhibit EGFR tyrosine kinase with high selectivity
